Experimental data reported in patent US8993569B2, “Diarylpyridazinone derivatives, preparation thereof, and use thereof for the treatment of humans” (Pierre Fabre Medicament, priority 2010, dated 2015).

Biological target: T1, human isoform of the Kv1.5 channels (HEK293 cells, stably transfected) (Homo sapiens, UniProt P22460)
T1 construct: expressed in transfected cells; host or cells: HEK293
Assay: FLIPR thallium ion flux assay on Kv1.5 potassium channel (FLIPR Potassium Ion Channel Assay Kit)
Format: cell-based
Details: 10 μM compound, 15 min at 37° C; HEK293-hKv1.5; thallium fluorescence 30 secs after depolarising solution; normalised with 10 μM DPO
Protocol: The pharmacological assessment of the compounds on the Kv1.5 potassium channel was performed in a 96-well plate in FLIPR technology by thallium ion measurement.
The HEK293 cells, stably transfected with the human isoform of the Kv1.5 channels, are seeded 24 h before experimentation in 96-well plates (15 10^6 cells/plate, 200 μl/well) polylysinated in the following culture medium: DMEM, 10% SVF, Penicillin/Streptomycin, G418 as the selection antibiotic.
The experimentation in FLIPR is performed using the “FLIPR Potassium Ion Channel Assay Kit) as indicated by the manufacturer (Molecular Devices).
Briefly, the culture medium is replaced by the solution containing the thallium marker for 90 min at 37° C. Following this step, the compounds to be tested are added to a final concentration of 10 μM in the well for 15 min at 37° C. The basic fluorescence is subsequently read for 60 secs. The addition of a depolarising medium (20 mM of potassium and 3 mM of final thallium), opens the potassium channels and induces an increase in the fluorescence of the fluorophore thallium corresponding to an influx of thallium ions through the hKv1.5 channels. The measurement is performed 30 secs after injection of the depolarising solution. Application of 10 μM of DPO (Tocris, Kv1.5 channel blocker) allows normalisation of the fluorescence.

T1 sequence (P22460 whole entry, canonical isoform): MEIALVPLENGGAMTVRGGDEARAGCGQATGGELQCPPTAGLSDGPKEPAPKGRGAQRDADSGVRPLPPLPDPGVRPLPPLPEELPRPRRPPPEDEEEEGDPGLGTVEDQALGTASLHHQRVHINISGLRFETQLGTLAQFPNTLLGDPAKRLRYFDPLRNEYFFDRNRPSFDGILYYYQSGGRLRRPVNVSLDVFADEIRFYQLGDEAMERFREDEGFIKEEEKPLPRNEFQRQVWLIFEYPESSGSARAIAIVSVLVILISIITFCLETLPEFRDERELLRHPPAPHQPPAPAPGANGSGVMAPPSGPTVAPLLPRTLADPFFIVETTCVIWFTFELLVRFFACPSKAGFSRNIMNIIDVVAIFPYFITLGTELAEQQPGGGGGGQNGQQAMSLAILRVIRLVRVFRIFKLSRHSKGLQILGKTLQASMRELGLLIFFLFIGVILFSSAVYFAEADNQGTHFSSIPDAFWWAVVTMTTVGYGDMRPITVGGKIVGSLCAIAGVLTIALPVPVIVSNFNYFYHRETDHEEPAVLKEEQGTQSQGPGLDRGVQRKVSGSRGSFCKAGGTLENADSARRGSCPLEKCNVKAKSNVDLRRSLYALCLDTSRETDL

## CC1=C(C(=O)N2CCC[C@H]2c2ccc(F)cc2)[C@@H](c2ccc(Cl)c(Cl)c2)n2nccc2N1 [BMS394136, reference compound]
  inhibition at 10 µM: 99.6%

## CC(c1ccccc1)n1ncc(-c2ccc(O)cc2)c(-c2ccc(O)cc2)c1=O (stereo not shown) [Example 1, 4,5-Bis-(4-hydroxy-phenyl)-2-(1-phenyl-ethyl)-2H-pyridazin-3-one]
  inhibition at 10 µM: 100%

## C[C@@H](c1ccccc1)n1ncc(-c2ccc(O)cc2)c(-c2ccc(O)cc2)c1=O [Example 2, 4,5-Bis-(4-hydroxy-phenyl)-2-((S)-1-phenyl-ethyl)-2H-pyridazin-3-one]
  inhibition at 10 µM: 100%

## C[C@H](c1ccccc1)n1ncc(-c2ccc(O)cc2)c(-c2ccc(O)cc2)c1=O [Example 3, 4,5-Bis-(4-hydroxy-phenyl)-2-((R)-1-phenyl-ethyl)-2H-pyridazin-3-one]
  inhibition at 10 µM: 43.3%

## CC(c1ccccc1)n1ncc(-c2ccccc2C#N)c(-c2ccccc2C#N)c1=O (stereo not shown) [Example 4, 2,2′-(6-oxo-1-(1-phenylethyl)-1,6-dihydropyridazine-4,5-diyl)dibenzonitrile]
  inhibition at 10 µM: 54.9%

## CC(c1ccccc1)n1ncc(-c2cccc(C#N)c2)c(-c2cccc(C#N)c2)c1=O (stereo not shown) [Example 5, 3,3′-(6-oxo-1-(1-phenylethyl)-1,6-dihydropyridazine-4,5-diyl) dibenzonitrile]
  inhibition at 10 µM: 93.6%

## COc1ccc(-c2cnn(C(C)c3ccccc3)c(=O)c2-c2ccc(OC)cc2)cc1 (stereo not shown) [Example 6, 4,5-Bis-(4-methoxy-phenyl)-2-(1-phenyl-ethyl)-2H-pyridazin-3-one]
  inhibition at 10 µM: 94.2%

## Cc1ccc(S(=O)(=O)Nc2cccc(-c3cnn(C(C)c4ccccc4)c(=O)c3-c3cccc(NS(=O)(=O)c4ccc(C)cc4)c3)c2)cc1 (stereo not shown) [Example 7, N,N′-(3,3′-(6-oxo-1-(1-phenylethyl)-1,6-dihydropyridazine-4,5-diyl)bis(3,1-phenylene))bis(4-methylbenzenesulfonamide)]
  inhibition at 10 µM: 54.9%

## COc1ccc(-c2c(-c3cccc(C#N)c3)cnn(C(C)c3ccccc3)c2=O)cc1 (stereo not shown) [Example 8, 3-(5-(4-methoxyphenyl)-6-oxo-1-(1-phenylethyl)-1,6-dihydropyridazin-4-yl)benzonitrile]
  inhibition at 10 µM: 88%

## COc1ccc(-c2c(-c3ccccc3C#N)cnn(C(C)c3ccccc3)c2=O)cc1 (stereo not shown) [Example 9, 2-[5-(4-Methoxy-phenyl)-6-oxo-1-(1-phenyl-ethyl)-1,6-dihydro-pyridazin-4-yl]-benzonitrile]
  inhibition at 10 µM: 60.1%
